From patent US20230357447A1, “TUMOR ACTIVATED MULTISPECIFIC ANTIBODIES FOR TARGETING CD28 AND PD-L1 AND METHODS OF USE THEREOF” (Janux Therapeutics, Inc., priority 2022, published 2023)

Tested on: anti-CD28 scFv
Assay: Phage binding ELISA (panning) of clonal phage on anti-CD28 scFv, with or without CD28 soluble protein
Settings: for Phage binding ELISA Backgroud signal / Backgroud signal: clonal phage supernatant; for Backgroud signal: background wells
Description: Clonal phage were harvested as crude supernatants and screened via standard enzyme linked immunosorbent assays (ELISAs). […] Prior to the addition of clonal phage, wells were incubated with blocking buffer and CD28 soluble protein or blocking buffer alone. Without washing or aspirating, clonal phage supernatants were then added to the wells and incubated for a short time. Wells were then washed followed by detection of bound phage using a horse radish peroxidase conjugated anti-M13 antibody. Clonal phage of interest were then sent for sequence analysis.

[1] = background (no anti-CD28 scFv signal)

Row | Substance | Phage binding ELISA Backgroud signal (background signal) | also measured
1 | Phage-211 (MDWCPRNMWTVCFL) | 0.060 | –
2 | Phage-118 (MDWCPRHLWDECFF) | – | Backgroud signal (Phage binding ELISA): 0.074
3 | Phage-430 (IHLCHWVPWIKCSH) | – | Phage binding ELISA Backgroud signal [1]: 2.516
4 | Phage-428 (MNWCPSTMWNRCLT) | – | Phage binding ELISA Backgroud signal [1]: 0.067
5 | Phage-219 (NYWCPSSMWNRCLH) | 0.295 | –
6 | Phage-201 (MDWCPRDMWDQCFD) | 0.072 | –
7 | Phage-189 (VDWCPRYLWHVCYN) | 0.064 | –
8 | Phage-277 (MDWCPRSHWSECFS) | 0.080 | –
9 | Phage-397 (MDWCPRAMWDYCFY) | – | Phage binding ELISA Backgroud signal [1]: 0.123
10 | Phage-252 (MDWCPRHMWINCFA) | 0.091 | –
11 | Phage-196 (MDWCPRYMWYQCFS) | 0.079 | –
12 | Phage-340 (MSWCPIDLWSECFA) | 0.072 | –
13 | Phage-373 (MDWCPRILWSDCFN) | 0.082 | –
14 | Phage-438 (MDWCPMSRWAFCFD) | – | Phage binding ELISA Backgroud signal [1]: 0.071
15 | Phage-260 (MDWCPVFMWNECFN) | 0.079 | –
16 | Phage-226 (MDWCPRDRWIDCFN) | 0.218 | –
17 | Phage-314 (MDWCPIHLWNECFN) | 0.074 | –
18 | Phage-95 (MDWCPRFLWSECFN) | – | Backgroud signal (Phage binding ELISA): 0.062
19 | Phage-398 (MDWCPRNMWNECFF) | – | Phage binding ELISA Backgroud signal [1]: 0.095
20 | Phage-403 (MSWCPWDMWNECFA) | – | Phage binding ELISA Backgroud signal [1]: 0.069

Row | Substance | Phage binding ELISA Backgroud signal (background signal) | also measured
21 | Phage-365 (MDWCPSYLWPVCFN) | 0.079 | –
22 | Phage-323 (MDWCPTYLWNVCFA) | 0.085 | –
23 | Phage-128 (MDWCPRDLWIECFF) | – | Backgroud signal (Phage binding ELISA): 0.084
24 | Phage-401 (MDWCPLDMWVLCFA) | – | Phage binding ELISA Backgroud signal [1]: 0.085
25 | Phage-181 (MYWCPRDLWDVCFN) | 0.145 | –
26 | Phage-400 (MHWCPTYMWSECFA) | – | Phage binding ELISA Backgroud signal [1]: 0.070
27 | Phage-316 (MDWCPRSLWNYCFA) | 0.067 | –
28 | Phage-362 (MDWCPRILWHECFS) | 0.064 | –
29 | Phage-63 (MDWCPRALWAECFN) | 0.068 | –
30 | Phage-154 (MDWCPRDLWNVCFA) | – | Backgroud signal (Phage binding ELISA): 0.114
31 | Phage-221 (TTWCPTSMWLHCFD) | 0.096 | –
32 | Phage-408 (MFWCPKDMWAECFA) | – | Phage binding ELISA Backgroud signal [1]: 0.099
33 | Phage-85 (MDWCPMDLWYQCFN) | 0.063 | –
34 | Phage-344 (MDWCPRHLWVHCFS) | 0.096 | –
35 | Phage-150 (MDWCPRHLWNVCFS) | – | Backgroud signal (Phage binding ELISA): 0.058
36 | Phage-111 (MDWCPFYLWNECFY) | – | CD28 scFv signal in presence of CD28 (Phage binding ELISA, captured anti-CD28 scFv pre-incubated with CD28 soluble protein): 0.594; CD28 scFv signal (Phage binding ELISA, captured biotinylated anti-CD28 scFv, blocking buffer alone): 2.528; Backgroud signal (Phage binding ELISA): 0.099
37 | Phage-129 (MDWCPSYLWTVCFA) | – | Backgroud signal (Phage binding ELISA): 0.062
38 | Phage-158 (MDWCPRYLWTECFF) | – | Backgroud signal (Phage binding ELISA): 0.110
39 | Phage-90 (MDWCPIDLWHLCFY) | – | Backgroud signal (Phage binding ELISA): 0.062
40 | Phage-284 (MDWCPRFLWHVCFS) | 2.091 | –

Row | Substance | Phage binding ELISA Backgroud signal (background signal) | also measured
41 | Phage-387 (MDWCPRHLWLECFN) | – | Phage binding ELISA Backgroud signal [1]: 0.064
42 | Phage-381 (MAWCPRILWHQCFN) | – | Phage binding ELISA Backgroud signal [1]: 0.113
43 | Phage-185 (MERCPRFLWNECFN) | 0.132 | –
44 | Phage-374 (MAWCPLDLWDKCFY) | 0.079 | –
45 | Phage-305 (MDWCPRDLWTECFS) | 0.080 | –
46 | Phage-261 (MDWCPMFMWHECFN) | 0.102 | –
47 | Phage-293 (MDWCPRHLWFECFN) | 0.064 | –
48 | Phage-249 (MDWCPSDMWAHCYN) | 0.191 | –
49 | Phage-276 (IDWCPKIHWDLCYF) | 0.072 | –
50 | Phage-186 (QDWCPTYLWHHCFN) | 0.101 | –
51 | Phage-84 (MDWCPKYLWSVCFF) | 0.184 | Phage binding ELISA CD28 scFv signal in presence of CD28 (clonal phage supernatant on captured anti-CD28 scFv pre-incubated with CD28 soluble protein): 0.826; Phage binding ELISA CD28 scFv signal (clonal phage supernatant on captured biotinylated anti-CD28 scFv, blocking buffer alone): 2.622
52 | Phage-436 (MDWCPRDRWADCFN) | – | Phage binding ELISA Backgroud signal [1]: 0.063
53 | Phage-372 (MDWCPRYLWVDCFA) | 0.095 | –
54 | Phage-253 (MVGCATSMWNRCLT) | 0.256 | –
55 | Phage-200 (MFWCPFDMWHFCFN) | 0.150 | –
56 | Phage-414 (LYWCPRDMWAYCYS) | – | Phage binding ELISA Backgroud signal [1]: 0.068
57 | Phage-338 (MDWCPRFLWNECFY) | 0.143 | –
58 | Phage-315 (MDWCPTYLWHVCFS) | 0.089 | –
